Source: BigSolDB 2.1

O=C(O)c1ccccc1O
solubility (mole fraction) (in acetone, 298.2 K): 0.137
solubility (mole fraction) (in acetone, 308.2 K): 0.139
solubility (mole fraction) (in acetone, 318.2 K): 0.156
solubility (mole fraction) (in acetone, 328.2 K): 0.196
solubility (mole fraction) (in isopropanol, 298.2 K): 0.144
solubility (mole fraction) (in isopropanol, 308.2 K): 0.161
solubility (mole fraction) (in isopropanol, 318.2 K): 0.173
solubility (mole fraction) (in isopropanol, 328.2 K): 0.195
solubility (mole fraction) (in isopropanol, 338.2 K): 0.214
solubility (mole fraction) (in n-propanol, 298.2 K): 0.132
solubility (mole fraction) (in n-propanol, 308.2 K): 0.15
solubility (mole fraction) (in n-propanol, 318.2 K): 0.163
solubility (mole fraction) (in n-propanol, 328.2 K): 0.179
solubility (mole fraction) (in n-propanol, 338.2 K): 0.195
solubility (mole fraction) (in water, 298.2 K): 0.000295
solubility (mole fraction) (in water, 308.2 K): 0.000355
solubility (mole fraction) (in water, 318.2 K): 0.000507
solubility (mole fraction) (in water, 328.2 K): 0.000699
solubility (mole fraction) (in water, 338.2 K): 0.000944
